Key:
Assay type in all cases: cell-based, murine
[1] = system: Ba/F3 cells expressing human c-KIT with exon 11 deletion of residues 557-558; assay: Cell proliferation assay (CellTiter-Glo), Ba/F3 c-KIT exon 11 deletion mutant; details: BaF3; Ba/F3, c-KIT exon 11 del 557-558; 72 h; dose range 0.6 to 10,000 nM; mean of at least three experiments; read-out: IC50 of cell proliferation inhibition, Exon 11 (WT)
Experimental: (§1) All mutations were confirmed by DNA sequencing.
(§2) Selective pressure was applied to the transfected cells by removing IL-3 from the culture medium. After IL-independent populations, further selective pressure was applied by also growing the cells in the presence of 1 mg/mL G418. […] The stable pools were further characterized by sequencing genomic DNA to confirm the presence of the transfected c-KIT cDNA.
(§3) This assay utilizes cellular ATP as a marker for cell proliferation/viability. […] Plates were then incubated in a 5% CO2 incubator at 37° C. for 3 days. After 72 h, 100 microliters of lysis/luciferase reagent (CellTiter-Glo, Promega G7573) was added to each well. The cells were then incubated on a shaker for 5 minutes at room temperature, and luminescence was measured on a Victor 5 (Perkin Elmer) spectrophotometer. Growth inhibition was measured by comparing luminescence signal from treated vs. untreated cells in assay plates, and the IC50 analysis of cell proliferation inhibition by compounds was analyzed using Analyze 5 in-house software. […] The IC50 values are mean values calculated from at least three experiments.

[2] = system: Ba/F3 cells expressing c-KIT Exon 11/V654A Gleevec-resistant double mutant; assay: Cell proliferation assay (CellTiter-Glo), Ba/F3 c-KIT exon 11/V654A; details: Mus musculus, BaF3, 72 h, dose range 0.6 to 10,000 nM, mean of at least three experiments, read-out: IC50 of cell proliferation inhibition, Exon 11/Gleevec-resistant Double Mutant V654A
Experimental: as §1, §2, §3

[3] = system: Ba/F3 cells expressing c-KIT Exon 11/D816G Gleevec-resistant double mutant; assay: Cell proliferation assay (CellTiter-Glo), Ba/F3 c-KIT exon 11/D816G; details: Mus musculus, BaF3, 72 h, dose range 0.6 to 10,000 nM, mean of at least three experiments, read-out: IC50 of cell proliferation inhibition, Exon 11/Gleevec-resistant Double Mutant D816G
Experimental: as §1, §2, §3

[4] = system: Ba/F3 cells expressing c-KIT Exon 11/N822K Gleevec-resistant double mutant; assay: Cell proliferation assay (CellTiter-Glo), Ba/F3 c-KIT exon 11/N822K; details: Mus musculus, BaF3, 72 h, dose range 0.6 to 10,000 nM, mean of at least three experiments, read-out: IC50 of cell proliferation inhibition, Exon 11/Gleevec-resistant Double Mutant N822K
Experimental: as §1, §2, §3

[5] = system: Ba/F3 cells expressing c-KIT Exon 11/Y823D Gleevec-resistant double mutant; assay: Cell proliferation assay (CellTiter-Glo), Ba/F3 c-KIT exon 11/Y823D; details: Mus musculus, BaF3, 72 h, dose range 0.6 to 10,000 nM, mean of at least three experiments, read-out: IC50 of cell proliferation inhibition, Exon 11/Gleevec-resistant Double Mutant Y823D
Experimental: as §1, §2, §3

[6] = system: c-KIT-expressing Ba/F3 cell lines, Gleevec-resistant double mutants versus Exon 11 mutant; assay: Potency shift caused by c-KIT resistance mutations (summary of Table 2); details: double mutants relative to Exon 11 mutant, from Table 2
Experimental: as §1, §2, §3

Work on `CNC(=O)c1cc(Oc2ccc(NC(=O)Nc3ccc(Cl)c(C(F)(F)F)c3)cc2)ccn1` [BAY 43-9006, N-[4-chloro-3-(trifluoromethyl)phenyl]-N′-{4-[2-carbamoyl-1-oxo-(4-pyridyloxy)]phenyl} urea] yielded an IC50 [1] of 3 nM, an IC50 [2] of 46 nM and an IC50 [3] of 8 nM. For the same compound, the IC50 [4] was 17 nM, the IC50 [5] was 36 nM and the “decrease of drug potency caused by c-KIT resistance mutations” value [6] was “no more than 15 fold”.

From patent publication US20100144749A1, “TREATMENT OF CANCERS WITH ACQUIRED RESISTANCE TO KIT INHIBITORS” (priority 2005, published 2010)
